{"source": "patent US20260035355A1", "about": "“COMPOUND, PHARMACEUTICAL COMPOSITION COMPRISING SAME, AND USE THEREOF” (SHENZHEN ZHONGGE BIOLOGICAL TECHNOLOGY CO., LTD., priority 2022, published 2026)", "data": [{"target": "T1, eIF2B (Homo sapiens, UniProt P49770+Q9UI10)", "T1 construct": "endogenous in cells; host or cells: HEK293T/17-ATF4 uORF-Luc-Puro monoclonal cells", "T1 sequence (P49770 whole entry)": "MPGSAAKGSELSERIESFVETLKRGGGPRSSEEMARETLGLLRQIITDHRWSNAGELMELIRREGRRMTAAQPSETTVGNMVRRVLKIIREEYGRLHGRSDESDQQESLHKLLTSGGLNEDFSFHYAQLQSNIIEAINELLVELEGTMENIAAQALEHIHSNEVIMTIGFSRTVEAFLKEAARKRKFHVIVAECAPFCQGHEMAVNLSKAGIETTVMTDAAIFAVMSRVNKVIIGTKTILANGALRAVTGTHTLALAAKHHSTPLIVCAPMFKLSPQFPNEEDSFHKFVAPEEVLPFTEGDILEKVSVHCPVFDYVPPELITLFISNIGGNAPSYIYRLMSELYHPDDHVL", "T1 sequence (Q9UI10 whole entry)": "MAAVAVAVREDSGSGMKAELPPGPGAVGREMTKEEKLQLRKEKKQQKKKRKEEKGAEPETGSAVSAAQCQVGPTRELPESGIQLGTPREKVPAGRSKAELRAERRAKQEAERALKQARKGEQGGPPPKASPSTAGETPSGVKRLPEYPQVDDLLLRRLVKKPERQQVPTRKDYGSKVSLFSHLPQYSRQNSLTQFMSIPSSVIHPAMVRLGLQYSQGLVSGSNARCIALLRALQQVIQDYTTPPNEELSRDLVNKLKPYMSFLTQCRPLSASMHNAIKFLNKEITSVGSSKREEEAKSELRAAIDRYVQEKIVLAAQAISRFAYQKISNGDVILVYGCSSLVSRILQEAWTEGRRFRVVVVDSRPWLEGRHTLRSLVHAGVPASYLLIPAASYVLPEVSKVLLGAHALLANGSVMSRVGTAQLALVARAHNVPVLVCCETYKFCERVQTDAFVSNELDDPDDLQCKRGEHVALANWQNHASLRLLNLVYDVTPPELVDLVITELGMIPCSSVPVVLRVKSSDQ", "T1 sequence (Q14232 whole entry partner)": "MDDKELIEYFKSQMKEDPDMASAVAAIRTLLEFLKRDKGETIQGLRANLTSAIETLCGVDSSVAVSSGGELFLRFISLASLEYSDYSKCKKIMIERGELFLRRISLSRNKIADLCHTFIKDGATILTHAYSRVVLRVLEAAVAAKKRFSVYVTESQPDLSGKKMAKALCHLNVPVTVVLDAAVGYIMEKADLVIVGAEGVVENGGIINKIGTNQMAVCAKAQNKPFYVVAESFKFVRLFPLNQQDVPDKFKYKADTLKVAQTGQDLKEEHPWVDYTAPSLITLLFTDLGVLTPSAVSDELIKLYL", "T1 sequence (Q9NR50 whole entry partner)": "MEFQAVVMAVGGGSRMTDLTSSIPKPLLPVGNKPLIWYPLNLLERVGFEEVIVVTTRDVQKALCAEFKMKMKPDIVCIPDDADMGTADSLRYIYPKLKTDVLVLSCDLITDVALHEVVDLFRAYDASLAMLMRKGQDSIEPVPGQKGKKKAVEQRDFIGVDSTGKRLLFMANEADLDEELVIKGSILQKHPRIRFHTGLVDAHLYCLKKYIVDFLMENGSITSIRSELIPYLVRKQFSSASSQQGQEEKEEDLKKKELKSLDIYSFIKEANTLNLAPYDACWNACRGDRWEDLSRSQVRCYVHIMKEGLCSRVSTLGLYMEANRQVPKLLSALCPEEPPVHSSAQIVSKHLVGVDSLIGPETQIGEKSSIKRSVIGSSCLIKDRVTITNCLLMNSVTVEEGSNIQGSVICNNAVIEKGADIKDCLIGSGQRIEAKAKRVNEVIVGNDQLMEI", "T1 sequence (Q13144 whole entry partner)": "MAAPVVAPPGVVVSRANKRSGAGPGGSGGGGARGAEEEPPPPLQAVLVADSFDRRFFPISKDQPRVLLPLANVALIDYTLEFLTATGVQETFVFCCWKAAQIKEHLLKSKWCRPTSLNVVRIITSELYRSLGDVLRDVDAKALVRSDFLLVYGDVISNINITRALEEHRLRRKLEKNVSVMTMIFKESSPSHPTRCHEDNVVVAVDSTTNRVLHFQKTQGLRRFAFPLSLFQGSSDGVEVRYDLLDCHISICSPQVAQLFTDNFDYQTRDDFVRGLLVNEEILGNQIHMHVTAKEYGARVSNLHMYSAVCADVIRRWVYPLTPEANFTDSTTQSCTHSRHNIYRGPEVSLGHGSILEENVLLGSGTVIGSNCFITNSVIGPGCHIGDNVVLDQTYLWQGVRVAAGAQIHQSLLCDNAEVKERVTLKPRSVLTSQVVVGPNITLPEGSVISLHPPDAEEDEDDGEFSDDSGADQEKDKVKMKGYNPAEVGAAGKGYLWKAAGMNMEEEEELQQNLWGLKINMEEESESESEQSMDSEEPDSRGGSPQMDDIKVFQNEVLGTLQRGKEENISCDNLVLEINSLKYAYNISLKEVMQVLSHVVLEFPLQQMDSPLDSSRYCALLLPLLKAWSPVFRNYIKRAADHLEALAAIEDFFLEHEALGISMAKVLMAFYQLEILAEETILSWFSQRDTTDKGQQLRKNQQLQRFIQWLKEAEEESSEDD", "test": "ATF4-Luc assay (ATF4 luciferase reporter, thapsigargin-induced stress)", "assay_type": "cell-based", "conditions": "HEK293T/17-ATF4 uORF-Luc-Puro monoclonal cells, 50 nM thapsigargin, incubated for 6 hours", "description": "The ATF4 luciferase reporter plasmid consists of two parts, i.e., the 5′ untranslated region sequence of the ATF4 gene and the luciferase coding sequence. Specifically, the ATF4 5′ untranslated region sequence (NCBI database number BC022088.2) containing two upstream open reading frames (uORFs), and the firefly luciferase encoding gene were cloned into the pLVX-Puro vector (YouBio, VT1465). The packaging plasmids of lentivirus were psPAX2 (YouBio, VT1444) and pMD2.G (YouBio, VT1443). 650,000 HEK293T cells were seeded per well of a 6-well plate and cultured overnight in a 5% CO2 incubator. The cells were transfected with the packaged lentivirus for 48 hours and then centrifuged, and the supernatant was discarded. The medium was replaced and changed to the DMEM complete medium containing 0.8 μg/ml puromycin, and the cells were resuspended and then cultured. After one week of cell screening with puromycin, the surviving cells were HEK293T-ATF4 uORF-Luc-Puro polyclonal cells. 200 polyclonal cells were taken and subjected to limiting gradient dilution by using a 96-well plate, so as to obtain monoclonal cells.\nThe specific method for screening the monoclonal cells involves: placing the 200 polyclonal cells in well A1 of the 96-well plate; step one: performing gradient dilution from columns A1 to H1 at a ratio of 1:2; step two: performing gradient dilution from rows A to H, with each row from wells 1 to 12 at a ratio of 1:2; marking the wells with a theoretical cell number less than 0.5 and observing one by one under a microscope; marking the wells with only one cell; and culturing the cells for two weeks to obtain the monoclonal cells.\nBy using this cell line and the cold fluorescence readings, the translational regulation of ATF4 can be detected, and the activity of eIF2B activated by the compounds can be tested.\nThe specific experimental process is as follows: 6000 HEK293T/17-ATF4 uORF-Luc-Puro monoclonal cells were plated in a 384-well plate and allowed to adhere overnight. The test compounds were dissolved in DMSO and diluted to 10 different concentrations, which were respectively added together with 50 nM thapsigargin to the cell culture medium and incubated for 6 hours, wherein the thapsigargin was used to cause cellular stress and upregulate the protein translation of ATF4. Six hours after the addition, the cells were lysed using the One-Glo Luciferase Assay Kit (Promega #E6120), and then the cold fluorescence values were read using the LUM program of the EnVision 2104 plate reader.\nEC50 was calculated based on the fluorescence values at 9 concentrations (0.1 nM, 0.3 nM, 1.0 nM, 3.0 nM, 10.0 nM, 30.0 nM, 100.0 nM, 300.0 nM and 1000.0 nM) of each compound and recorded in Table 1.\nThe ATF4 reporter expression was calculated as follows:\nATF4 reporter expression=(ave_sample-ave_vc)/(ave_pc-ave_vc)\nwhere ave_vc represents the average signal value of negative controls, ave_pc represents the average signal value of positive controls, and ave_sample represents the average signal value of samples.\nThe dose-response curves were fitted, and the EC50 values were calculated.\nThe nonlinear regression log(inhibitor) vs. response—variable slope (four parameters) method of GraphPad 9 software was used to fit the corresponding relationship between the ATF4 reporter expression and the compound concentration.\nThe X-axis represents the log value of the compound concentration; and the Y-axis represents the ATF4 reporter expression.", "units": {"EC50": "nM"}, "values": [{"smiles": "O=C(COc1ccc(Cl)c(F)c1)NC1CC2(CCN(C(=O)c3cnc(C(F)F)cn3)CC2)C1", "note": "[IV-12]", "EC50": "> 100"}, {"smiles": "O=C(CO[C@H]1C[C@@H](OC(F)(F)F)C1)NC1CC2(CCN(C(=O)COc3ccc(Cl)c(F)c3)CC2)C1", "note": "[IV-17]", "EC50": "> 100"}, {"smiles": "O=C(COc1ccc(Cl)c(F)c1)NC1CC2(CCN(C(=O)COc3ccc(Cl)c(F)c3)CC2)C1", "note": "[IV-11]", "EC50": "10 to 100"}, {"smiles": "O=C(COc1ccc(Cl)c(F)c1)NC1CC2(CCC(c3nnc(N4CC(OC(F)(F)F)C4)o3)CC2)C1", "note": "(stereo not drawn) [VI-1]", "EC50": "10 to 100"}, {"smiles": "O=C(COc1ccc(Cl)c(F)c1)NC1CC2(C1)CC(NC(=O)COc1ccc(Cl)c(F)c1)C2", "note": "(stereo not drawn) [III-10]", "EC50": "> 100"}, {"smiles": "O=C(NC1CC12CCN(C(=O)c1cc3cc(Cl)ccc3o1)CC2)c1cc2cc(Cl)ccc2o1", "note": "(stereo not drawn) [I-9]", "EC50": "> 100"}, {"smiles": "O=C(COc1ccc(Cl)c(F)c1)NC1CC12CCN(C(=O)[C@H]1CNc3cc(Cl)ccc3O1)CC2", "note": "(stereo partly drawn) [I-3]", "EC50": "> 100"}, {"smiles": "O=C(COc1ccc(Cl)c(F)c1)NC1CC2(CCN(c3nnc(N4CC(OC(F)(F)F)C4)o3)CC2)C1", "note": "[IV-1]", "EC50": "10 to 100"}, {"smiles": "O=C(COc1ccc(Cl)c(F)c1)NC1CCC2(CC1)CN(C(=O)c1cnc(C(F)F)cn1)C2", "note": "[V-11]", "EC50": "> 100"}, {"smiles": "O=C(COc1ccc(Cl)c(F)c1)NC1COC2(C1)CN(C(=O)c1cnc(C(F)F)cn1)C2", "note": "(stereo not drawn) [II-10]", "EC50": "> 100"}, {"smiles": "O=C(COc1ccc(Cl)c(F)c1)NC1COC2(C1)CN(C(=O)c1cc3cc(Cl)ccc3o1)C2", "note": "(stereo not drawn) [II-12]", "EC50": "10 to 100"}, {"smiles": "O=C(COc1ccc(Cl)c(F)c1)NC1CC12CCN(C(=O)c1cc3cc(Cl)ccc3o1)CC2", "note": "(stereo not drawn) [I-2]", "EC50": "> 100"}, {"smiles": "O=C(NC1CC12CCN(NC(=O)c1cc3cc(Cl)ccc3o1)CC2)c1cc2cc(Cl)ccc2o1", "note": "(stereo not drawn) [I-10]", "EC50": "10 to 100"}, {"smiles": "CN1C[C@H](C(=O)N2CCC3(CC2)CC3NC(=O)COc2ccc(Cl)c(F)c2)Oc2ccc(Cl)cc21", "note": "(stereo partly drawn) [I-4]", "EC50": "> 100"}, {"smiles": "CN1C[C@H](C(=O)N2CCC3(CC2)CC(NC(=O)COc2ccc(Cl)c(F)c2)C3)Oc2ccc(Cl)cc21", "note": "[IV-15]", "EC50": "> 100"}, {"smiles": "O=C(COc1ccc(Cl)c(F)c1)NC1CC2(CCN(C(=O)c3cc4cc(Cl)ccc4o3)CC2)C1", "note": "[IV-19]", "EC50": "10 to 100"}]}, {"tested_on": "model animals", "test": "not given", "conditions": "oral administration for three days; cited from earlier work", "values": [{"smiles": "NC(CO)(CO)CO.O=C(COc1ccc(Cl)c(F)c1)NC12CCC(NC(=O)COc3ccc(Cl)c(F)c3)(CC1)[C@@H](OCOP(=O)([O-])O)C2.[Na+]", "note": "[ABBV-CLS-7262]", "brain function (in words)": "restored to youthful levels"}]}, {"tested_on": "not listed separately", "test": "Evaluation of cell membrane permeability", "assay_type": "in vitro ADME", "conditions": "10 μM, 120 minutes; read-out: Efflux Ratio (Papp B to A/Papp A to B)", "experimental": "(§1) The test compounds were diluted from 10 mM stock solutions to a concentration of 10 μM using the transport buffer (HBSS+BSA) and applied to the apical or basolateral side of the cell monolayer. After the incubation at 37° C., 5% CO2 and 95% relative humidity for 120 minutes, the permeability of the test compounds in the A to B direction or the B to A direction was dually determined. In addition, the efflux ratio (Papp B to A/Papp A to B) of each compound was determined. The test substances and reference substances were quantitatively analyzed by the LC-MS/MS method based on the analyte/IS peak area ratio.", "values": [{"smiles": "C[C@H]1O[C@@H](O[C@H]2[C@@H](O)C[C@H](O[C@H]3[C@@H](O)C[C@H](O[C@H]4CC[C@@]5(C)[C@H](CC[C@@H]6[C@@H]5C[C@@H](O)[C@]5(C)[C@@H](C7=CC(=O)OC7)CC[C@]65O)C4)O[C@@H]3C)O[C@@H]2C)C[C@H](O)[C@@H]1O", "note": "[Digoxin]", "efflux ratio at 120 min, 10 μM": 44.7}]}, {"tested_on": "not listed separately", "test": "Evaluation of cell membrane permeability", "assay_type": "in vitro ADME", "conditions": "10 μM, transport buffer (HBSS+BSA), 37° C., 120 minutes", "experimental": "as §1", "units": {"Papp A→B at 120 min, 10 μM": "×10⁻⁶ cm/s", "Papp B→A at 120 min, 10 μM": "×10⁻⁶ cm/s"}, "values": [{"smiles": "CC(C)NCC(O)COc1cccc2ccccc12", "note": "(stereo not drawn) [Propranolol]", "Papp A→B at 120 min, 10 μM": 32.4, "Papp B→A at 120 min, 10 μM": 20.1}, {"smiles": "C[C@H]1O[C@@H](O[C@H]2[C@@H](O)C[C@H](O[C@H]3[C@@H](O)C[C@H](O[C@H]4CC[C@@]5(C)[C@H](CC[C@@H]6[C@@H]5C[C@@H](O)[C@]5(C)[C@@H](C7=CC(=O)OC7)CC[C@]65O)C4)O[C@@H]3C)O[C@@H]2C)C[C@H](O)[C@@H]1O", "note": "[Digoxin]", "Papp A→B at 120 min, 10 μM": 0.25, "Papp B→A at 120 min, 10 μM": 11.2}]}, {"tested_on": "healthy participants", "test": "not given", "conditions": "Phase 1, healthy participants; cited from earlier work", "values": [{"smiles": "O=C(COc1ccc(Cl)cc1)NC12CC(c3nnc([C@H]4C[C@@H](OC(F)(F)F)C4)o3)(C1)C2", "note": "[DNL-343]", "safety and tolerability (in words)": "demonstrated its safety and tolerability"}]}, {"tested_on": "mouse models", "test": "not given", "conditions": "cited from earlier work", "values": [{"smiles": "O=C(COc1ccc(Cl)cc1)NC1CCC(NC(=O)COc2ccc(Cl)cc2)CC1", "note": "(stereo not drawn) [ISRIB]", "long-term memory (in words)": "improve long-term memory"}]}]}
